From ChEMBL document CHEMBL1201862, “PubChem BioAssay data set” (2004)
Calls of active or inactive are those of the source.

Tests used:
cells [1] = format: functional
[2] = HepG2 cell cytotoxicity, dose response, cytotoxicity control for non-replicating M. tuberculosis project (AID 489018); format: functional; details: Mycobacterium tuberculosis
[3] = THP-1 cell cytotoxicity, dose response, cytotoxicity control for non-replicating M. tuberculosis project (AID 489025); format: functional
Hexokinase = Hexokinase (Trypanosoma brucei, UniProt Q38C41); assay: Confirmation assay for inhibitors of Trypanosoma brucei hexokinase 1-Analogue-first series. [Related pubchem assays (depositor defined):AID1430, AID1632, AID2516, AID2560, AID2579, AID2600, AID449725, AID492951]; format: functional
[4] = target: T1, Voltage-dependent T-type calcium channel subunit alpha-1H (Homo sapiens, UniProt O95180); assay: Cav3.2 T-type channel inhibitors, cell-based, synthetic library set 1, calcium flux (AID 493022); format: functional
[5] = Luminescence Cell-Based Dose Retest to Confirm Inhibitors of Cancer Stem Cells. [Related pubchem assays (depositor defined):AID2717, AID2721]; format: functional; details: Homo sapiens
[6] = target: T2, Zinc finger protein mex-5 (Caenorhabditis elegans, UniProt Q9XUB2); assay: MEX-5/TCR-2 RNA interaction inhibitors, dose response, biochemical, C. elegans, fluorescence polarization (AID 1960)
T2 sequence (Q9XUB2 whole entry): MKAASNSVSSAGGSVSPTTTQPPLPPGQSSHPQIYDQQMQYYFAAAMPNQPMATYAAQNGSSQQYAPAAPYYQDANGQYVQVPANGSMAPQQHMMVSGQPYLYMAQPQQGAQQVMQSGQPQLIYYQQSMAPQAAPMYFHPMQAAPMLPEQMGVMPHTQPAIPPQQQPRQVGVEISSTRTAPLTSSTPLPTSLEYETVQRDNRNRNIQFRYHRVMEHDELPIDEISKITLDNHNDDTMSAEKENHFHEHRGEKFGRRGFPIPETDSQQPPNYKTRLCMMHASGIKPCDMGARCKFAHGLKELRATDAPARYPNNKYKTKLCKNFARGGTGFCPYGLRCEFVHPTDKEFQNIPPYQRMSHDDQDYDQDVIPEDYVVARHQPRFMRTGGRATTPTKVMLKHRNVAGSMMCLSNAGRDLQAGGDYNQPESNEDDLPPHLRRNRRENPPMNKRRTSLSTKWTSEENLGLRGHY

[7] = target: T3, RNA-binding protein pos-1 (Caenorhabditis elegans, UniProt G5EF15); assay: inhibitors of POS-1/mex-3 RNA binding, dose response, biochemical, fluorescence polarization (AID 1964);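 note: purified POS-1 fused to maltose binding protein made in E. coli; potency of compounds blocking POS-1 binding to fluorescent RNA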
T3 sequence (G5EF15 whole entry): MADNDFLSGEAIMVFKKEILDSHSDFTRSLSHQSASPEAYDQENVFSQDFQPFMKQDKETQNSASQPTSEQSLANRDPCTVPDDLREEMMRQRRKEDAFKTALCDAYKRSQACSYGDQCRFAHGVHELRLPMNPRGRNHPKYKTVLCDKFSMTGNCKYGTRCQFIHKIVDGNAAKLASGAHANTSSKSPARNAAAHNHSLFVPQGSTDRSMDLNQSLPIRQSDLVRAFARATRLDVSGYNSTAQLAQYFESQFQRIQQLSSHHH

Bcl-2-like protein 1 = Bcl-2-like protein 1 (Homo sapiens, UniProt Q07817); assay: BCL-XL inhibitors, dose response, selectivity assay for MCL1 inhibitor project, biochemical, fluorescence polarization, 1536-well (AID 2218)
Caspase-3 = target: T4, Caspase-3 (Homo sapiens, UniProt P42574); assay: procaspase-3 activators, dose response, biochemical, absorbance (AID 489014)
T4 sequence (P42574 whole entry): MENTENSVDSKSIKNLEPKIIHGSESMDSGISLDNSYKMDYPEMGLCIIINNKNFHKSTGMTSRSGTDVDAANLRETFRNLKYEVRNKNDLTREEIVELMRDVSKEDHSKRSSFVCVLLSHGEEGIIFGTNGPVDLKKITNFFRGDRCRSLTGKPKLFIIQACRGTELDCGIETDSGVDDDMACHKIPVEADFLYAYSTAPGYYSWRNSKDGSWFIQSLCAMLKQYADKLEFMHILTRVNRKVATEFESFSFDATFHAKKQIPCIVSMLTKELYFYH

[8] = target: Induced myeloid leukemia cell differentiation protein Mcl-1 (Homo sapiens, UniProt Q07820); assay: MCL1-BIM BH3 interaction inhibitors, dose response, biochemical, fluorescence polarization, BIM-BH3 peptide, 1536-well (AID 2217)
Caspase-7 = Caspase-7 (Homo sapiens, UniProt P55210); assay: procaspase-7 activators, dose response, counter-screen for procaspase-3 activator project, biochemical, absorbance (AID 489013)
[9] = target: T5, Tyrosine-protein phosphatase non-receptor type 7 (Homo sapiens, UniProt P35236); assay: HePTP (PTPN7) phosphatase inhibitor potency, SAR follow-up, biochemical, set 2 (AID 449736); format: functional
T5 sequence (P35236 whole entry): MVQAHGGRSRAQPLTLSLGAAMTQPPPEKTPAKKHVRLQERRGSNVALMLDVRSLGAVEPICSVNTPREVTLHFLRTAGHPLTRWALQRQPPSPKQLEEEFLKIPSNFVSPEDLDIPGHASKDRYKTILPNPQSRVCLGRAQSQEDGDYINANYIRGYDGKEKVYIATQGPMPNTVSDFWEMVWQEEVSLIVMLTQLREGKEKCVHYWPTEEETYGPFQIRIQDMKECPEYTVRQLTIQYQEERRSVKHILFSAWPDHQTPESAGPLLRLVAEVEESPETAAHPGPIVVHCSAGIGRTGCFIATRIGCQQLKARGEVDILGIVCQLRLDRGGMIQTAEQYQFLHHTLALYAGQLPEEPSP

[10] = target: Intestinal-type alkaline phosphatase (Mus musculus, UniProt P24822); assay: PubChem AID 488785; format: functional
[11] = target: Luciferin 4-monooxygenase (Photinus pyralis, UniProt P08659); assay: firefly luciferase enzyme inhibitors, dose response, biochemical, luminescence (AID 1891)
[12] = target: Intestinal-type alkaline phosphatase (Homo sapiens, UniProt P09923); assay: activation of human intestinal alkaline phosphatase – biochemical, dose response (AID 488873); format: functional
[13] = target: T6, Heat shock factor protein 1 (Mus musculus, UniProt P38532); assay: inhibition of MG132-induced HSE-luciferase signal, confirmation, cell-based, NIH3T3, luminescence, dose retest (AID 2382); format: functional;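 note: NIH3T3 fibroblasts with HSF1-driven luciferase reporter stressed by proteasome inhibitor MG132; luminescence from HSF1-driven luciferase expression after 8 hours of MG132 stress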
T6 sequence (P38532 whole entry): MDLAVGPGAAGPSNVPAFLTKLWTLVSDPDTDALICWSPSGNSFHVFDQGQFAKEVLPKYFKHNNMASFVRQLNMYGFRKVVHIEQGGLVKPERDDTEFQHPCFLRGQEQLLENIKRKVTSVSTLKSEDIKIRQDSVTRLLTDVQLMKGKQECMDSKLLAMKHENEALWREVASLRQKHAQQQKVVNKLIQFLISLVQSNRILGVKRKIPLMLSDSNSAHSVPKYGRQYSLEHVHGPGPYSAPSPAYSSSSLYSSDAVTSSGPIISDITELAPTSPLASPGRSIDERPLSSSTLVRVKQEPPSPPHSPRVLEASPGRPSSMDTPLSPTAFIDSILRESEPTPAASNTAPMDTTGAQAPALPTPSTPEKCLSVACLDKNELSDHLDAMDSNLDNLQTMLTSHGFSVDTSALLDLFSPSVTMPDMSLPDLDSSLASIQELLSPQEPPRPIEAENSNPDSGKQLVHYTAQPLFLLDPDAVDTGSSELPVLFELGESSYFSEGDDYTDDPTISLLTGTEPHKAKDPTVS

[14] = Luminescence Cell-Based Dose Confirmation HTS to Identify Inhibitors of Platelet Dense Granule Release. [Related pubchem assays: 1663 (Primary HTS), 1678 (Summary of Project)]; format: functional
[15] = target: T7, Alkaline phosphatase, tissue-nonspecific isozyme (Homo sapiens, UniProt P05186); assay: TNAP enzyme inhibition by screening hits, dose response, selectivity assay for mouse IAP inhibitor project, biochemical, human TNAP, uHTS hits (AID 488906); format: functional
T7 sequence (P05186 whole entry): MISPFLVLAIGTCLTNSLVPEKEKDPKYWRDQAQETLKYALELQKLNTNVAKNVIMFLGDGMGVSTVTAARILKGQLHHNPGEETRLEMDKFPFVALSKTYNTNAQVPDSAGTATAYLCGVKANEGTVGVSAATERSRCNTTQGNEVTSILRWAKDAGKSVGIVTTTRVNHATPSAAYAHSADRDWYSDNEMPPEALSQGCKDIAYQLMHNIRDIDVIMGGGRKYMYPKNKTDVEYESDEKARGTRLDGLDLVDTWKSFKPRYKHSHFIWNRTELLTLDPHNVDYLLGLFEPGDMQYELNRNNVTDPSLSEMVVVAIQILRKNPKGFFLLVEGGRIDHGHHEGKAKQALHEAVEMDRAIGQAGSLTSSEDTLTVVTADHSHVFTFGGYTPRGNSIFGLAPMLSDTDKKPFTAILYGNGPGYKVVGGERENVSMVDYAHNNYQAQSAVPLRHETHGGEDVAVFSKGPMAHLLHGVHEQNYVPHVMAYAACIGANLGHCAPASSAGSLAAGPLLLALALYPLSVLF

[16] = target: T1, Voltage-dependent T-type calcium channel subunit alpha-1H; assay: Cav3.2 T-type channel inhibitors, synthesized analogs, SAR follow-up, cell-based, synthetic library set 2, HEK293 HH8, Fluo-4 (AID 493023); format: functional
[17] = target: T8, Runt-related transcription factor 1/Core-binding factor subunit beta (Homo sapiens, UniProt Q01196+Q13951); assay: inhibitors of RUNX1 Runt–CBFb-SMMHC binding, primary screen, biochemical, FRET, Cerulean-Runt, Venus-CBFb-SMMHC, uHTS (AID 1434); format: protein assay;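 note: partner is the CBFb-SMMHC leukemia fusion protein rather than wild-type CBFb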
[18] = target: T8, Runt-related transcription factor 1/Core-binding factor subunit beta; assay: inhibitors of RUNX1 Runt–CBFb-SMMHC binding, biochemical, TR-FRET (AID 1438); format: protein assay
[19] = Luminescence Cell-Based Dose Retest to Confirm Activators of 5'UTR Stem-Loop Driven Alpha-Synuclein mRNA Translation in H4 Neuroglioblastoma Cells. [Related pubchem assays (depositor defined):AID1813, AID1829]; format: functional
[20] = cytotoxicity in HEK-293T cells, dose response, cytotoxicity control for TCR NF-kB inhibitor project, luminescence, T-cell screen hits (AID 489026); format: functional, cell-based;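 note: cells exposed to compound about 14 hours before the viability readout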
[21] = Luminescence Cell-Based Dose Response HTS to Identify Inhibitors of 5'UTR Stem-Loop Driven Prion Protein mRNA Translation in H4 Neuroglioblastoma Cells. [Related pubchem assays: 1827 (Project Summary), 1813 (Primary HTS)]; format: functional
[22] = Luminescence Cell-Based Dose Response HTS to Identify Activators of 5'UTR Stem-Loop Driven Prion Protein mRNA Translation in H4-C Neuroglioblastoma Cells. [Related pubchem assays: 1829 (Project Summary), 1814 (Primary HTS)]; format: functional
cells [23] = format: functional, cell-based
[24] = Luminescence Cell-Based Dose Response HTS to Identify Activators of Luciferase Translation or Activity in H4-C Neuroglioblastoma Cells. [Related pubchem assays: 1829 (Project Summary), 1814 (Primary HTS)]; format: functional
[25] = inhibitors of SNCA 5'UTR-driven reporter translation, confirmation, H4 neuroglioma cells, luminescence (AID 1988); format: functional, cell-based
[26] = inhibitors of SNCA 5'UTR-driven translation, confirmation, luminescence, H4 neuroglioblastoma cells, dose confirmation (AID 2454); format: functional, cell-based;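 note: H4 neuroglioblastoma cells carrying an alpha-synuclein 5'UTR luciferase reporter; potency for inhibition of the luciferase signal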
[27] = Luminescence Cell-Based Dose Response HTS to Identify Inhibitors of Luciferase Translation or Activity in H4-C Neuroglioblastoma Cells. [Related pubchem assays: 1813 (Primary HTS), 1827 (Project Summary)]; format: functional
[28] = Luminescence Cell-Based Dose Confirmation HTS to Identify Inhibitors of 5'UTR Stem-Loop Driven Alpha-Synuclein mRNA Translation in H4 Neuroglioblastoma Cells. [Related pubchem assays: 1827 (Project Summary), 1813 (Primary HTS)]; format: functional
[29] = Luminescence Cell-Based Dose HTS Response to Identify Inhibitors of 5'UTR Stem-Loop Driven Prion Protein mRNA Translation in H4-C Neuroglioblastoma Cells. [Related pubchem assays (depositor defined):AID1814, AID1827]; format: functional
[30] = inhibitors of firefly luciferase expression or activity, dose response, H4 neuroglioma cells, luminescence (AID 1990); format: functional, cell-based
[31] = luciferase reporter signal reduction – luminescence, H4-C neuroglioblastoma cells, dose response (AID 2458); format: functional, cell-based;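 note: H4 neuroglioblastoma cells stably carrying a luciferase reporter gene fusion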
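Throughout, for AC50: cells exposed to compound for roughly 70 hours or longer before luminescence read.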

T1 sequence (O95180 whole entry): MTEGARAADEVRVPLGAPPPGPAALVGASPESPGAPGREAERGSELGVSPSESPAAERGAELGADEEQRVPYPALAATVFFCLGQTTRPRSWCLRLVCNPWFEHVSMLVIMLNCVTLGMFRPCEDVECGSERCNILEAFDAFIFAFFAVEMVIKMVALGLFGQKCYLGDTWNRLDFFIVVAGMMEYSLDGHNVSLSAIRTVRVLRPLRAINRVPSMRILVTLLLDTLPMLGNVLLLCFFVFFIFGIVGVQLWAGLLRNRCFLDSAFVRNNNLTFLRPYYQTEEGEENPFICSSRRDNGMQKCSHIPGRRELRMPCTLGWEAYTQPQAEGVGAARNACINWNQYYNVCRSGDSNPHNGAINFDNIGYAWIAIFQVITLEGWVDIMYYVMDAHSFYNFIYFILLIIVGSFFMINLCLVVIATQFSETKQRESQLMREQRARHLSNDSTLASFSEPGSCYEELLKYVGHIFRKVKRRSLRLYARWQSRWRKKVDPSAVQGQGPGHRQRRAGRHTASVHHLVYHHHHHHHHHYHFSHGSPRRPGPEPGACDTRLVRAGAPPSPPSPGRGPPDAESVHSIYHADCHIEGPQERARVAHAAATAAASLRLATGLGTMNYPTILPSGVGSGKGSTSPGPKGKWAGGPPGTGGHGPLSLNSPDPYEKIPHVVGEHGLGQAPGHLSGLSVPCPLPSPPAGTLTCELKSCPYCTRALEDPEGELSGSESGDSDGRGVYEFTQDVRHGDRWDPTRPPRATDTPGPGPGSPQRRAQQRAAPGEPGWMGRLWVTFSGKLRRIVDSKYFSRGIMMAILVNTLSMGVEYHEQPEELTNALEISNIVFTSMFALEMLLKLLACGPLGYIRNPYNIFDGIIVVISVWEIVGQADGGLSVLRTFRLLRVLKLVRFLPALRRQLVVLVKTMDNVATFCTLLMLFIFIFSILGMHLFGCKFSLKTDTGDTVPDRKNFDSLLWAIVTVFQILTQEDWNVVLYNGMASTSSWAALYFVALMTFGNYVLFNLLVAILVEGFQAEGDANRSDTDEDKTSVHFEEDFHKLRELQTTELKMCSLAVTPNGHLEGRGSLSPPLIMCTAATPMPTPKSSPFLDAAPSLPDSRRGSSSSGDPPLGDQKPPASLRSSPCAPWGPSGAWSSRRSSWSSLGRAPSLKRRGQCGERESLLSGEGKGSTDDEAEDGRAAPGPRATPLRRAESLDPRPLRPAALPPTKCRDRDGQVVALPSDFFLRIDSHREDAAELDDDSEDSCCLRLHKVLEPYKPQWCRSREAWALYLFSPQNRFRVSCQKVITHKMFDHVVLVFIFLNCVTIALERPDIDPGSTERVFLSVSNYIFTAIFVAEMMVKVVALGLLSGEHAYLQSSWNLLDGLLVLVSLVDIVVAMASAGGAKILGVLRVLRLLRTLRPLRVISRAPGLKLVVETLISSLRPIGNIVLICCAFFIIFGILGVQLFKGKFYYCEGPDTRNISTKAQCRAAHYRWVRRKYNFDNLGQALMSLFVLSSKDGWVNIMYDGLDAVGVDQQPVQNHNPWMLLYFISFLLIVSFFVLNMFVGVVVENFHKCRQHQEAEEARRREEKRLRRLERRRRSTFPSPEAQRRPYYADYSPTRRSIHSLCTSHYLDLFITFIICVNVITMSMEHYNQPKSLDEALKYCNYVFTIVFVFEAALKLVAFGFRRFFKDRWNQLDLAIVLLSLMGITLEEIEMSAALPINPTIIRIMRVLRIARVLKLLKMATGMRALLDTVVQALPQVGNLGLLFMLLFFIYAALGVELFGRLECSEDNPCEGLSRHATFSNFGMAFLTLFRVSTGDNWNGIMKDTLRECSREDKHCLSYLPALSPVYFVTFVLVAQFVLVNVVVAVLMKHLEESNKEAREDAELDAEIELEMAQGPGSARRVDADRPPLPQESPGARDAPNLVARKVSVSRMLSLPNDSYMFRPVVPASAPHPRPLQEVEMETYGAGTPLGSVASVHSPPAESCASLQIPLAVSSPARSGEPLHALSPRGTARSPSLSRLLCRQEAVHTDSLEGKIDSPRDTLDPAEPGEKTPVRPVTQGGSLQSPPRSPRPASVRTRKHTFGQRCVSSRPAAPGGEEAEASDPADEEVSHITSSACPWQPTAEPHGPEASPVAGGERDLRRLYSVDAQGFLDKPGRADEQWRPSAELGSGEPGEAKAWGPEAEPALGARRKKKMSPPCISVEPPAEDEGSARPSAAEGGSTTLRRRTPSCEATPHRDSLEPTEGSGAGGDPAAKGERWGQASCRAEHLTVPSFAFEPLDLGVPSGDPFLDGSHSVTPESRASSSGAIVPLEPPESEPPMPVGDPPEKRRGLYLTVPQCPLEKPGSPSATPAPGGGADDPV
T8 sequence (Q01196 whole entry, the tested form may be a part): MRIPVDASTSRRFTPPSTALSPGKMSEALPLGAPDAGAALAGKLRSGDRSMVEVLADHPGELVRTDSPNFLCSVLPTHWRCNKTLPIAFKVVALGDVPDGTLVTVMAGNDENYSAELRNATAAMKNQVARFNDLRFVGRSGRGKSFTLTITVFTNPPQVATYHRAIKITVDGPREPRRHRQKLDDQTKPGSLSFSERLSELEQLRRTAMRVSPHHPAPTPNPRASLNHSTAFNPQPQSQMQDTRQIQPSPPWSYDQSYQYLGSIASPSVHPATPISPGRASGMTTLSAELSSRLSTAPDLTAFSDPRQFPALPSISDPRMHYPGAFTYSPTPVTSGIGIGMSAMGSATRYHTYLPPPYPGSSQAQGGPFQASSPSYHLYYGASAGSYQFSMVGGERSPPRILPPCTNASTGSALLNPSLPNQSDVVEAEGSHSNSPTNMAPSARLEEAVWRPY
T8 sequence (Q13951 whole entry, the tested form may be a part): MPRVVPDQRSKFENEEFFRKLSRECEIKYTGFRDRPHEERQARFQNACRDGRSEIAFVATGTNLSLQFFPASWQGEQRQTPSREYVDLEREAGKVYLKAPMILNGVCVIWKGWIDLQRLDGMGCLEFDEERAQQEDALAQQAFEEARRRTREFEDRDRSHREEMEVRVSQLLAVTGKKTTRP
Chain of Bcl-2-like protein 1 (Q07817 whole entry): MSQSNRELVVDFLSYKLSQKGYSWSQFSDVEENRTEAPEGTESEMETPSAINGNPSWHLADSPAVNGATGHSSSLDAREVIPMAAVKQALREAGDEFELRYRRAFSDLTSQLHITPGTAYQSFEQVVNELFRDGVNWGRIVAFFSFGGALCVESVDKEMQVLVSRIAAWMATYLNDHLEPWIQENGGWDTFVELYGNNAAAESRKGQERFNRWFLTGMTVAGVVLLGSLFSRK
Chain of Luciferin 4-monooxygenase (P08659 whole entry): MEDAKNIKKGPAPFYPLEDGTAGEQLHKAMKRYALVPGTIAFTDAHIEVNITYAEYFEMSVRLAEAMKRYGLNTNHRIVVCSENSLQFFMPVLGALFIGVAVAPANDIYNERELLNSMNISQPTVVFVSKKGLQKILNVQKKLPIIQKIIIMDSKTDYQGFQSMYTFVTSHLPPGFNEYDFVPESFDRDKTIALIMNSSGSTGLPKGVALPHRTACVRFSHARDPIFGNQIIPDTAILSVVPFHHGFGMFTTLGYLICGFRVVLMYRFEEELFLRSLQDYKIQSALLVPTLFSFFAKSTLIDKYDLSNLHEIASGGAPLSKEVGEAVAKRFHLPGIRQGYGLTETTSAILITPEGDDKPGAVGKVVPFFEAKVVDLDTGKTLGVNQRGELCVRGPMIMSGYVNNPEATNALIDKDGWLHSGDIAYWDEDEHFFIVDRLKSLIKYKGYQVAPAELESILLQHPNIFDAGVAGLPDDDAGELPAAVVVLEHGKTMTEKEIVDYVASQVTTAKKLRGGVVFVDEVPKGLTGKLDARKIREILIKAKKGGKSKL
Chain of Induced myeloid leukemia cell differentiation protein Mcl-1 (Q07820 whole entry): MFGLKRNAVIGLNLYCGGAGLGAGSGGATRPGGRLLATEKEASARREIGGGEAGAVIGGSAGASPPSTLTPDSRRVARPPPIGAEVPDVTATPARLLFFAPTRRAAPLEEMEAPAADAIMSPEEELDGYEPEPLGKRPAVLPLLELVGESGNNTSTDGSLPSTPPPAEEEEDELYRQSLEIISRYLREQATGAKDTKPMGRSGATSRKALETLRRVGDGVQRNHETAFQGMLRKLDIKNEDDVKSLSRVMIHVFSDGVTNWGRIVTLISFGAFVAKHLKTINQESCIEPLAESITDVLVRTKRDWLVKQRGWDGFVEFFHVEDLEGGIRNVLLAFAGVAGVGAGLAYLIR
Chain of Hexokinase (Q38C41 whole entry): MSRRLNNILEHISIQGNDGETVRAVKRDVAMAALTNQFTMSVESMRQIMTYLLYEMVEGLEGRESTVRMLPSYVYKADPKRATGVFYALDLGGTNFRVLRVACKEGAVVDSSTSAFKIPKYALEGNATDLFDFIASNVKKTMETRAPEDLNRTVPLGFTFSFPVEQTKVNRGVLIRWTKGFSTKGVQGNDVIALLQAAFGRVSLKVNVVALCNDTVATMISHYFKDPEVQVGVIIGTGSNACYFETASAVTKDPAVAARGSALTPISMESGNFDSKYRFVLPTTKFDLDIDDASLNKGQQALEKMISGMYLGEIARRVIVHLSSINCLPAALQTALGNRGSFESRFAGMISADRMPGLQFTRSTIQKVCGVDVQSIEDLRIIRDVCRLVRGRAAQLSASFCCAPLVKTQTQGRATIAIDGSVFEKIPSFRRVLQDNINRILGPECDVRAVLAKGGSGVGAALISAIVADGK
Chain of Caspase-7 (P55210 24-198 limits assumed): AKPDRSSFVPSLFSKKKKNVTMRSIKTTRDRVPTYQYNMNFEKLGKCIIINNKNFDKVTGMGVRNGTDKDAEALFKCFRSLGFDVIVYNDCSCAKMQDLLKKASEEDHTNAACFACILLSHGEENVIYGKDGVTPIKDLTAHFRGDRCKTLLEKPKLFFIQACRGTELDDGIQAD
Chain of Caspase-7 (P55210 207-303 limits assumed): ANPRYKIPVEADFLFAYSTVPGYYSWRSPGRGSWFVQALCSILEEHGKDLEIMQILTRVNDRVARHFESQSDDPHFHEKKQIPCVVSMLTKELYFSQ

CCOc1ccc(C(=O)Nc2nc3ccccc3[nH]2)cc1OCC
IC50 (cells [1]): 12 µM (active)
CC50 [2]: 18.8 µM (active)
CC50 [3]: > 40 µM (active)

O=C(Cn1sc2ccccc2c1=O)Nc1cccc(C(F)(F)F)c1
IC50 (Hexokinase): > 25 µM (inactive)

O=C(COc1ccc(F)cc1Cl)Nc1nnc(-c2ccc3c(c2)OCO3)o1
EC50 [4]: 2.1 µM (active)

COC(=O)c1ccccc1NCc1cc(=O)oc2cc(O)c(O)cc12
AC50 [5]: 6.97 µM (active)
EC50 [6]: 18.4 µM (inconclusive)
EC50 [7]: 19 µM (inconclusive)
IC50 (Bcl-2-like protein 1): > 109 µM (not active)
EC50 (Caspase-3): > 1.05 µM (active)
IC50 [8]: > 4.03 µM (active)
EC50 (Caspase-7): > 85.2 µM (inactive)

Cc1ccc(-n2c(N)c(C(=O)Nc3ccccc3F)sc2=S)cc1C
IC50 [9]: 50.5 µM (active)

CN(C)c1ccc(N=Nc2nc3ccccc3n2C)cc1
IC50 [10]: 27.6 µM (active)
EC50 [11]: 0.213 µM (active)
EC50 [12]: > 100 µM (inactive)
EC50 [13]: 0.429 µM (inconclusive)
EC50 [14]: 0.208 µM (active)
IC50 [15]: 36.9 µM (active)

CC(C)(C)CCN1CCC[C@@H](NC(=O)COc2ccccc2Cl)C1
EC50 [16]: 10 µM (active)

N#Cc1c2c(c(NCc3ccco3)n3c1nc1ccccc13)CCC2
IC50 [17]: > 100 µM (inactive)
IC50 [18]: > 100 µM (inactive)

CCOC(=O)COc1cccc2c(=O)n(CC(=O)NCc3ccc(F)cc3)ccc12
EC50 [19]: 26.6 µM (inconclusive)
IC50 [20]: > 80 µM (inactive)
EC50 [21]: > 120 µM (not active)
EC50 [22]: 22.4 µM (inconclusive)
EC50 (cells [23]): 2.36 µM (active)
EC50 [24]: 1.36 µM (inconclusive)
EC50 [25]: < 0.1 µM (active)
EC50 [26]: 1.51 µM (active)
EC50 [27]: 1.36 µM (active)
EC50 [28]: 26.6 µM (active)
EC50 [29]: 22.4 µM (active)
EC50 [30]: 12.6 µM (active)
EC50 [31]: > 12 µM (inconclusive)
